Experimental data: patent US9120785B2, “Pyridyl aminopyridines as Syk inhibitors” (Merck Sharp & Dohme Corp., priority 2011, dated 2015)
Read-outs that look alike come from different tables or passages of the source.

Key:
[1] = biological target: recombinant human GST-Syk (Homo sapiens (Human), UniProt P43405); test: Homogeneous Time-Resolved Fluorescence (HTRF) assay for the recombinant human Syk enzyme; type: biochemical; conditions: recombinant human GST-Syk 5 pM, ATP 25 μM
Method in brief: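 GST-hSyk (5 pM final) preincubated 10 min at room temperature with inhibitor (0.1% DMSO) in 15 mM Tris-HCl pH 7.5, 0.01% Tween 20, 2 mM DTT. Reaction with 250 nM biotinylated peptide, 5 mM Mg, 25 μM ATP for 45 min, room temperature. Quenched with EDTA; Eu-anti-phosphotyrosine/SA-APC HTRF read after 30 min.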

[2] = dosed intranasally, phase I/II study, allergic rhinitis; cited from earlier work
[3] = phase II clinical trial, allergic rhinitis; cited from earlier work
[4] = class symbols, read-out: rhSyk activity (IC50)
[5] = 10-dose titration, read-out: rhSyk (nM) IC50

Row | SMILES | IC50 [1, 4] | also measured
1 | Cc1cc(Nc2cc(C)c(Cl)cn2)nc(-c2cnc(C(C)(O)[C@H]3CC[C@H](C(=O)O)CC3)s2)c1 (relative stereo) [Example 14-5, trans-4-[1-(5-{6-[(5-chloro-4-methylpyridin-2-yl)amino]-4-methylpyridin-2-yl}-1,3-thiazol-2-yl)-1-hydroxyethyl]cyclohexanecarboxylic acid] | ≤ 100 nM | –
2 | Cc1cc(Nc2cc(C3CC3)ccn2)nc(-c2cnc(C(C)(O)[C@H]3CC[C@H](C(=O)O)CC3)s2)c1 (relative stereo) [Example 14-7, trans-4-[1-(5-{6-[(4-cyclopropylpyridin-2-yl)amino]-4-methylpyridin-2-yl}-1,3-thiazol-2-yl)-1-hydroxyethyl]cyclohexanecarboxylic acid] | ≤ 100 nM | –
3 | Cc1cc(Nc2cc(OC(C)C)ccn2)nc(-c2cnc(C(O)(C3CC3)[C@H]3CC[C@H](C(=O)O)CC3)s2)c1 (single isomer, unassigned) [Example 14-23, trans-4-{cyclopropyl(hydroxy)[5-(4-methyl-6-{[4-(propan-2-yloxy)pyridin-2-yl]amino}pyridin-2-yl)-1,3-thiazol-2-yl]methyl}cyclohexanecarboxylic acid] | ≤ 100 nM | –
4 | Oc1cccc(Nc2ncc(F)c(Nc3cccc(O)c3)n2)c1 [Example R112] | – | clinical safety [2]: safe across a range of indicators; decrease in PGD2 [2]: statistically significant decrease; efficacy versus placebo [3]: lack of efficacy versus placebo
5 | Cc1cc(Nc2cc(C(F)(F)F)ccn2)nc(-c2cnc(C(O)[C@H]3CC[C@H](C(=O)O)CC3)s2)c1 (single isomer, unassigned) [Example 14-29, trans-4-{hydroxy[5-(4-methyl-6-{[4-(trifluoromethyl)pyridin-2-yl]amino}pyridin-2-yl)-1,3-thiazol-2-yl]methyl}cyclohexanecarboxylic acid] | ≤ 100 nM | –
6 | Cc1cc(Nc2cc(C(C)C)ccn2)nc(-c2cnc(C(C)(O)[C@H]3CC[C@H](C(=O)O)CC3)s2)c1 (relative stereo) [Example 14-8, trans-4-{1-hydroxy-1-[5-(4-methyl-6-{[4-(propan-2-yl)pyridin-2-yl]amino}pyridin-2-yl)-1,3-thiazol-2-yl]ethyl}cyclohexanecarboxylic acid] | ≤ 100 nM | –
7 | CCC(O)(c1ncc(-c2cc(C)cc(Nc3cc(C4CC4)ccn3)n2)s1)[C@H]1CC[C@H](C(=O)O)CC1 (single isomer, unassigned) [Example 1, Enantiomer 1, trans-4-[1-(5-{6-[(4-cyclopropylpyridin-2-yl)amino]-4-methylpyridin-2-yl}-1,3-thiazol-2-yl)-1-hydroxypropyl]cyclohexanecarboxylic acid] | ≤ 100 nM | IC50 [1, 5]: 2.9 nM

More lines, main results first:

Row | IC50 [1, 4] | SMILES | also measured
8 | ≤ 100 nM | Cc1cc(Nc2cc(C(F)(F)F)ccn2)nc(-c2cnc(C(C)(O)C3CCC(C(=O)O)C(C)C3)s2)c1 (centres unmarked) [Example 15-15, 4-{1-hydroxy-1-[5-(4-methyl-6-{[4-(trifluoromethyl)pyridin-2-yl]amino}pyridin-2-yl)-1,3-thiazol-2-yl]ethyl}-2-methylcyclohexanecarboxylic acid] | –
9 | ≤ 100 nM | Cc1ccnc(Nc2cc(C)cc(-c3cnc(C(C)(O)[C@H]4CC[C@H](C(=O)O)C(C)(C)C4)s3)n2)c1 (stereo partly drawn) [Example 14-34, (1S,4S)-4-[1-hydroxy-1-(5-{4-methyl-6-[(4-methylpyridin-2-yl)amino]pyridin-2-yl}-1,3-thiazol-2-yl)ethyl]-2,2-dimethylcyclohexanecarboxylic acid] | –
10 | ≤ 100 nM | Cc1cc(Nc2cc(C(F)(F)F)ccn2)nc(-c2cnc(C(C)(O)C3CCC(C(=O)O)C(C)C3)s2)c1 (single isomer, unassigned) [Example 15-6, 4-{1-hydroxy-1-[5-(4-methyl-6-{[4-(trifluoromethyl)pyridin-2-yl]amino}pyridin-2-yl)-1,3-thiazol-2-yl]ethyl}-2-methylcyclohexanecarboxylic acid] | –
11 | ≤ 100 nM | Cc1cc(Nc2cc(C(F)F)ccn2)nc(-c2cnc(C(C)(O)[C@H]3CC[C@H](C(=O)O)C(C)(C)C3)s2)c1 (stereo partly drawn) [Example 14-38, (1S,4S)-4-{1-[5-(6-{[4-(difluoromethyl)pyridin-2-yl]amino}-4-methylpyridin-2-yl)-1,3-thiazol-2-yl]-1-hydroxyethyl}-2,2-dimethylcyclohexanecarboxylic acid] | –
12 | ≤ 100 nM | COc1ccnc(Nc2cc(C)cc(-c3cnc(C(C)(O)[C@H]4CC[C@H](C(=O)O)C(C)(C)C4)s3)n2)c1 (stereo partly drawn) [Example 14-36, (1S,4S)-4-[1-hydroxy-1-(5-{6-[(4-methoxypyridin-2-yl)amino]-4-methylpyridin-2-yl}-1,3-thiazol-2-yl)ethyl]-2,2-dimethylcyclohexanecarboxylic acid] | –
13 | ≤ 100 nM | CC1(C)C[C@@H](C(C)(O)c2ncc(-c3cccc(Nc4cc(C(F)F)ccn4)n3)s2)CC[C@@H]1C(=O)O (stereo partly drawn) [Example 14-50, (1S,4S)-4-{1-[5-(6-{[4-(difluoromethyl)pyridin-2-yl]amino}pyridin-2-yl)-1,3-thiazol-2-yl]-1-hydroxyethyl)-2,2-dimethylcyclohexanecarboxylic acid] | IC50 [1, 5]: 6 nM
